From patent US5155259A, “Aldose reductase inhibitor” (Toyo Jozo Kabushiki Kaisha, priority 1990, dated 1992)

Key:
[1] = biological target: T1, aldose reductase, originating from the lens of cattle (Bos taurus, UniProt P16116); experiment: Enzyme reaction inhibiting activity (aldose reductase, NADPH / D,L-glyceraldehyde, absorbance at 340 nm); format: biochemical; conditions: for inhibition at 0.1 µg: concentration of 0.1 γ, pH 6.0, 37° C.
T1 construct: originating from the lens of cattle, was employed after being subjected to a partial purification; from tissue; host or cells: lens of cattle, partially purified
Procedure: The preparation of aldose reductase and the determination of its enzyme reaction inhibiting activity were carried out pursuant to the procedures disclosed by Haymann et al. in Journal of Biological Chemistry, 240, 877 (1965).
The sample solution to be examined for inhibiting activity was prepared by dissolving an amount of a compound of formula (I) according to the present invention in a small amount of methanol and increasing the volume of the resulting methanol solution by diluting it with distilled water up to tenfold volume. As the enzyme, i.e. aldose reductase, originating from the lens of cattle, was employed after being subjected to a partial purification.
To 2.4 ml of 5×10^-5 M NADPH solution dissolved in a 2/15 M phosphate buffer solution (pH 6.0), 0.4 ml of the enzyme solution and 0.1 ml of the sample solution to be examined were added and the mixture was charged in a quartz cell in a photoelectric photometer and was subjected to preincubation at 37° C. for 4 mins. Then, 0.1 ml of a 0.015 M D,L-glyceraldehyde solution was added thereto for initiating the enzyme reaction and the decrease in the photoabsorbance at 340 nm was measured at 37° C. for 4 mins. The aldose reductase inhibiting activity calculated by [formula] in which A represents the enzyme reaction rate with addition of the inhibitor and B denotes the enzyme reaction rate without addition of the inhibitor.

[2] = tested on: sorbitol accumulation in lens; experiment: Activity for suppressing accumulation of sorbitol, tissue culture of lens; format: cell-based, Wistar rats; conditions: for Inhibition of Sorbite Accumulat. in Lens: concentration of 2.5 γ, rat lens cultured 20 hours with added glucose
Procedure: (§1) Lenses and sciatic nerves excised from 7 weeks-old male Wistar rats were washed twice with an aseptic buffer solution consisting of 0.3% trisaminomethane, 0.8% NaCl, 0.038% KCl, 0.025% Na2 HPO4.12H2 O, 0.1% glucose and 1.85 ml/1 of concentrated HCl.
(§2) The lenses and the sciatic nerves were then treated by a 30 mins. preculture in a culture medium prepared by adding 2 ml of 7.5% conc. aseptic NaHCO3 solution and 5.5 ml of aseptic calf fetus serum to 100 ml of an aseptic culture medium of 0.98% TC Medium 199 (supplied from the firm NISSUI) containing 0.01% of dihydrostreptomycin and 0.01% of benzyl-penicillin. Thereafter, the intrinsic culture was effected in a culture medium prepared by adding each sample solution to be examined and 0.09% of glucose to the above-mentioned culture medium and permitting culturing to proceed for 20 hours. The culturing was effected at 37° C. in an atmosphere composed of 95% air and 5% CO2.
(§3) After culturing, the cultured samples of lens and sciatic nerve were removed from the culture medium to filter paper and the weight of each of them was measured after the adherent culture solution had been blown off. Then, each of the cultured samples was homogenized with the addition of 1 ml of a cold 8% HClO4 solution and the homogenized mixture was subjected to centrifugation at 10,000 G for 10 mins., whereby a supernatant was obtained. The resulting precipitate was then homogenized again with addition thereto of 0.5 ml of cold 8% HClO4 solution and the homogenized mixture was again subjected to centrifugation in a similar way as above to obtain a further supernatant. This was combined with the previously obtained supernatant and the resulting solution was neutralized with 2 N KOH aq. solution and was diluted with distilled water to a volume of 5 ml. The precipitate formed by neutralization was separated by centrifugation at 3,000 rpm for 10 mins. and the resulting supernatant was employed as the sample for determining the sorbitol content.
(§4) The determination of the sorbitol content in the lens and in the sciatic nerve was carried out in accordance with the technique of Bergmeyer in "Methods of Enzymatic Analysis" edited by H.U. Bergmeyer, pp 1323-1326, Academic Press, New York, 1974 and in accordance with the technique proposed by Malaon et al. in "Diabetes" 29, 861-864 (1980).
(§5) To 0.5 ml of the sample solution for determination of sorbitol content obtained as above, 0.9 ml of 0.1 M glycine-KOH buffer solution (pH 9.4) containing 1 mM of NAD^+ and 0.1 ml of a solution of sorbitol dehydrogenase of 20 units/ml were added and the resulting mixture was subjected to incubation at 37° C. for 1 hour.
(§6) The content of sorbitol in each tissue was estimated by assuming the increment of the photoabsorbance at 340 nm to be proportional to the amount of NADH produced by the reaction for the lens and by detecting the fluorescence with an excitation wavelength of 366 nm and a fluorescence wavelength of 425 nm for the sciatic nerve.
(§7) The activity for suppressing accumulation of sorbitol, i.e. the aldose reductase inhibiting activity, was calculated from the determined sorbitol content by the calculation formula [formula] in which A denotes the content of sorbitol per unit weight of the tissue after cultivation with addition of the inhibitor, B denotes the sorbitol content per unit weight of the tissue after cultivation without addition of the inhibitor and C represents the sorbitol content per unit weight of the tissue after cultivation in the medium without addition of glucose and inhibitor.

[3] = tested on: sorbitol accumulation in sciatic nerve; experiment: Activity for suppressing accumulation of sorbitol, tissue culture of sciatic nerve; format: cell-based, Wistar rats; conditions: concentration of 1.0 γ; rat sciatic nerve cultured 20 hours with added glucose
Procedure: as §1, §2, §3, §4, §5, §6, §7

STD-DDY mice = experiment: Acute toxicity, oral; format: in vivo; conditions: orally 400 mg/20 ml/kg, dissolved with aqueous NaOH at pH 6.5-7.0, observed for 10 days
Procedure: Compounds of formula (I) according to the present invention, as given in the examples below or 2,2'-dimethoxy-5, 5'-bis(3-carboxypropyl) biphenyl, were suspended in distilled water and were dissolved completely by adding at least the equimolar amount of aqueous NaOH solution. […] No fatality was marked in any of the administered groups.

Row | inhibition at 0.1 µg [1] | Molecule | Inhibition of Sorbite Accumulat. in Lens [2] | aldose reductase inhibiting activity (in words) ([1]; tests according to 1) and 2), concentration not given) | activity for suppressing accumulation of sorbitol (in words) ([2]; tissue and concentration not stated) | Inhibition of Sorbite Accum. in Sciatic N. [3] | fatality (acute toxicity) (STD-DDY mice)
1 | 44% | O=C(O)CCc1ccc(OCC2CCCCC2)c(-c2cc(CCC(=O)O)ccc2OCC2CCCCC2)c1 [2,2'-dicyclohexylmethoxy-5,5'-bis(2-carboxyethyl) biphenyl] | 51% |  |  |  | 
2 |  | 2,2'-dimethoxy-5, 5'-bis(3-carboxypropyl) biphenyl diester |  | did not exhibit any aldose reductase inhibiting activity | no activity for suppressing accumulation of sorbitol |  | 
3 | 77% | CCOc1ccc(CCCC(=O)O)cc1-c1cc(CCCC(=O)O)ccc1OCC [R=C2H5, n=3, 2,2'-diethoxy-5,5'-bis(3-carboxypropyl) biphenyl] | 76% |  |  | 80% | 
4 | 45% | O=C(O)CCCc1ccc(OCC2CCCCC2)c(-c2cc(CCCC(=O)O)ccc2OCC2CCCCC2)c1 [2,2'-dicyclohexylmethoxy-5,5'-bis(3-carboxypropyl) biphenyl] | 57% |  |  |  | 
5 | 48% | CCCCCOc1ccc(CCCC(=O)O)cc1-c1cc(CCCC(=O)O)ccc1OCCCCC [R=C5H11, n=3, 2,2'-dipentyloxy-5,5,'-bis(3-carboxypropyl) biphenyl] |  |  |  |  | 
6 | 57% | CCCOc1ccc(CCCC(=O)O)cc1-c1cc(CCCC(=O)O)ccc1OCCC [R=C3H7, n=3, 2,2'-dipropoxy-5,5'-bis(3-carboxypropyl) biphenyl] | 68% |  |  | 67% | 
7 | 35% | CCCOc1ccc(CCC(=O)O)cc1-c1cc(CCC(=O)O)ccc1OCCC [R=C3H7, n=2, 2,2'-dipropoxy-5,5'-bis(2-carboxyethyl) biphenyl] | 66% |  |  | 67% | 
8 | 44% | COc1ccc(CCC(=O)O)cc1-c1cc(CCC(=O)O)ccc1OC [R=CH3, n=2, 2,2'-dimethoxy-5,5'-bis(2-carboxyethyl) biphenyl] | 76% |  |  | 85% | 
9 | 43% | CCOc1ccc(CCC(=O)O)cc1-c1cc(CCC(=O)O)ccc1OCC [R=C2H5, n=2, 2,2'-diethoxy-5,5'-bis(2-carboxyethyl) biphenyl] | 56% |  |  | 69% | 

Row | Molecule | inhibition at 0.1 µg [1] | Inhibition of Sorbite Accumulat. in Lens [2] | aldose reductase inhibiting activity (in words) ([1]; tests according to 1) and 2), concentration not given) | activity for suppressing accumulation of sorbitol (in words) ([2]; tissue and concentration not stated) | Inhibition of Sorbite Accum. in Sciatic N. [3] | fatality (acute toxicity) (STD-DDY mice)
10 | COc1ccc(CCCC(=O)O)cc1-c1cc(CCCC(=O)O)ccc1OC [R=CH3, n=3, 2,2'-dimethoxy-5,5'-bis (3-carboxypropyl) biphenyl] | 63% | 85% |  |  | 92% | No fatality
